Read-outs that look alike come from different tables or passages of the source.
How the values were obtained:
[1] = test system: ocular hypertensive non-human primates; test: IOP change after topical application in ocular hypertensive non-human primates; assay type: in vivo; conditions: for Tmax: time point of maximum IOP reduction
Experimental: Tables 2 and 3 describe the intraocular pressure (IOP) changes that were seen following topical application of EP2 agonists in ocular hypertensive non-human primates. Typically, compounds in suitable formulations were dosed topically and IOP was measured using tonometry. Changes in IOP between vehicle treatment followed by treatment with EP2 compounds were assessed over time in the dosed hypertensive eye. ΔΔ Emax reflects the difference in IOP from EP2 compound-treated eye over that seen for vehicle-treated eye at the timepoint wherein maximum IOP reduction for compound was seen. The percent ΔΔ Emax was the percentage change in IOP reduction conferred by compound over that for vehicle (set at 100%). Tmax represents the time point at which maximum IOP reduction of compound was observed. […] NS represents not significant. Table 2 compares acids of EP2 compound while Table 3 compares IOP response seen with esters of certain acids. Esters provide better corneal penetration and improved drug exposure in the anterior chamber compared to acids and are therefore dosed at ⅕th the dose for acids […].

[2] = target: recombinant murine EP2 receptor (Mus musculus, UniProt Q62053); conditions: fraction of the affinity of PGE2; cited from earlier work
[3] = test system: other murine EP receptors or DP, TP, FP or IP receptors; conditions: cited from earlier work
[4] = test system: newborn piglets; conditions: brief hypoxia, in the presence of PG synthase inhibitors; cited from earlier work
[5] = target: T1, EP2 (Homo sapiens, UniProt P43116); set-up: expressed in transfected cells; host or cells: COS cells; conditions: COS cells transfected with the human EP2 receptor; read-out: EC50 for the stimulation of cAMP; cited from earlier work
[6] = test system: murine astrocyte cultures; conditions: cited from earlier work
[7] = test system: ocular hypertensive non-human primates; test: IOP change after topical application in ocular hypertensive non-human primates; assay type: in vivo; conditions: isopropylesters, OHT primates, NT eye
[8] = target: T1, EP2; test: EP2 cAMP EC50 (Table 1); assay type: cell-based
[9] = target: T2, prostaglandin E2 type 2 (EP2) receptors (Homo sapiens, UniProt P43116); test: Assay for binding to prostaglandin E2 receptors (3H-prostaglandin E2 displacement, membranes of transfected cells); conditions: displacement of 3H-prostaglandin E2
T2 construct: expressed in transfected cells
Experimental: All operations are performed at 4° C. […] These are lysed by sonification with a Branson Sonifier (Model #250, Branson Ultrasonics Corporation, Danbury, Conn.) in 2 fifteen second bursts. Unlysed cells and debris are removed by centrifugation at 100×g for 10 min. Membranes are then harvested by centrifugation at 45,000×g for 30 minutes. Pelleted membranes are resuspended to 3-10 mg protein per ml, protein concentration being determined according to the method of Bradford [Bradford, M., Anal. Biochem., 72, 248 (1976)]. Resuspended membranes are then stored frozen at −80° C. until use.
Frozen membranes as prepared are thawed and diluted to 1 mg protein per ml in Buffer A. One volume of membrane preparation is combined with 0.05 volume test compound or buffer and one volume of 3 nM 3H-prostaglandin E2 (#TRK 431, Amersham, Arlington Heights, Ill.) in Buffer A. The mixture (205 μL total volume) is incubated for 1 hour at 25° C. The membranes are then recovered by filtration through type GF/C glass fiber filters (#1 205401, Wallac, Gaithersburg, Md.) using a Tomtec harvester (Model Mach II/96, Tomtec, Orange, Conn.). The membranes with bound 3H-prostaglandin E2 are trapped by the filter, the buffer and unbound 3H-prostaglandin E2 pass through the filter into waste. Each sample is then washed 3 times with 3 ml of [50 mM Tris-HCl (pH 7.4), 10 mM MgCl2, 1 mM EDTA]. The filters are then dried by heating in a microwave oven. To determine the amount of 3H-prostaglandin bound to the membranes, the dried filters are placed into plastic bags with scintillation fluid and counted in a LKB 1205 Betaplate reader (Wallac, Gaithersburg, Md.). IC50s are determined from the concentration of test compound required to displace 50% of the specifically bound 3H-prostaglandin E2.

[10] = test system: glaucomatous dogs; test: IOP change after topical instillation in glaucomatous dogs; assay type: in vivo; conditions: single 50 μl drop, @ 6 h, drawing 64 […] ([…]), drawing 65 0.1 mg/ml (0.01%)
Experimental: Typically, compounds in suitable formulations were dosed topically and IOP was measured using tonometry. A single 50 μl drop containing either vehicle or drug was instilled in each eye of glaucomatous dogs and IOP was measured at 1, 2, 4, and 6 hours post dose. A baseline IOP measurement was taken prior to topical instillation of vehicle or drug. Changes in IOP between vehicle treatment followed by treatment with EP2 compounds were assessed over time in the glaucomatous dogs. ΔΔ Emax reflects the difference in IOP±standard error from EP2 compound-treated eye over that seen for vehicle-treated eye at the time point wherein maximum IOP reduction for compound was seen. The percent ΔΔ Emax was the percentage change in IOP reduction conferred by compound over that for vehicle (set at 100%).

[11] = Solid form by powder X-ray diffraction; assay type: physicochemical; conditions: FIG. 1
Experimental: During analysis, the samples were analyzed from angles of 4 to 40 degrees (θ-2θ) using a scan time of 60 seconds and a scan spot size of 0.5 mm.
The X-Ray diffraction peaks, characterized by peak positions and intensity assignments, have been extracted from the X-ray powder diffractogram of Example 1 and comparative compound 12. One of skill in the art will appreciate that the peak positions (2θ) will show some inter-apparatus variability, typically as much as 0.1 degrees. Accordingly, where peak positions (2θ) are reported, one of skill in the art will recognize that such numbers are intended to encompass such inter-apparatus variability.

[12] = test system: ciliary muscle; conditions: topical ocular QD for 1 year; treated and contralateral eyes; cited from earlier work

T2 sequence (P43116 whole entry): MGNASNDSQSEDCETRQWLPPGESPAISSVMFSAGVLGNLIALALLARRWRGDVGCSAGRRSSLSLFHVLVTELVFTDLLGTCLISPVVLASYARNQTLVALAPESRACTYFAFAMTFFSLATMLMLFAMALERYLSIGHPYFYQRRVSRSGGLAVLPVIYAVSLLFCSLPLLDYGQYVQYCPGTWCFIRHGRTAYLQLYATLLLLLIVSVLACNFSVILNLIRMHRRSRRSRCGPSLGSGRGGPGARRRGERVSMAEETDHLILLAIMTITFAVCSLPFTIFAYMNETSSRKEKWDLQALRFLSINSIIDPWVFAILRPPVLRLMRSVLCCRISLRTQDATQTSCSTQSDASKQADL
T1 sequence (P43116 whole entry): as above
Chain of recombinant murine EP2 receptor (Q62053 whole entry): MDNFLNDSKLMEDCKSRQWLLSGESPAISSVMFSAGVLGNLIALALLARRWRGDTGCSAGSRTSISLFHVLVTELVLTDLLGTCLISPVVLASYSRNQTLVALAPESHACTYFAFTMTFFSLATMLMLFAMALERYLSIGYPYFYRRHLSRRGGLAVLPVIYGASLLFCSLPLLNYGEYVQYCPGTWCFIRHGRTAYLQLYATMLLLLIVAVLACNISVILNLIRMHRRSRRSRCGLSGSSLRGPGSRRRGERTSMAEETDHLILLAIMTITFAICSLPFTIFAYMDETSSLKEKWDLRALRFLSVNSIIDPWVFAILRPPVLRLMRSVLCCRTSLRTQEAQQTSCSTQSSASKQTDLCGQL

SMILES | EC50 [8] | IC50 [9] | other results
CCCC1([C@H](O)C/C=C/[C@H]2[C@H](O)CC(=O)[C@@H]2CCCCCCC(=O)OC)CCC1 (racemic) [Butaprost, (+/−)-15-Deoxy-16S-hydroxy-17-cyclobutyl PGE1] | – | – | change in vivo at 0.1 % ([1]; Primates, topical, acid EP2 agonists, Conc 0.1 %, topical, vs vehicle (set at 100%), read-out: ΔΔEmax (%)): -18%; ΔΔEmax (mm Hg) ([1]; acid EP2 agonists, Conc 0.1 %, topical, dosed hypertensive eye vs vehicle): −5.5 mm Hg; Tmax ([1]; acid EP2 agonists, Conc 0.1 %): 5 h; affinity relative to PGE2 [2]: about 1/10; binding to other prostanoid receptors [3]: does not bind appreciably; electrophysiological changes (VEPs and ERGs) [4]: restoration of electrophysiological changes; EC50 [5]: ~5000 nM
CCCCC[C@H](O)/C=C/[C@H]1[C@H](O)CC(=O)[C@@H]1C/C=C\CCCC(=O)O [PGE2, prostaglandin E2] | – | – | synthesis and secretion of BDNF and NGF [6]: stimulate synthesis and secretion of brain-derived neurotrophic factor (BDNF) and nerve growth factor (NGF)
CC(C)OC(=O)COc1cccc(CN(Cc2ccc(-n3cccn3)cc2)S(=O)(=O)c2cccnc2)c1 [drawing 61] | – | – | ΔΔEmax (mmHg) ([1]; isopropylesters, OHT primates, OHT eye, 0.1 mg/ml topical): −14 mmHg; Tmax ([1]; isopropylesters, OHT primates): 6 h; ΔΔEmax (mmHg) [7]: −7.5 mmHg
CC(C)OC(=O)COc1cccc(CN(Cc2ccc(-n3cccn3)cc2)S(=O)(=O)c2cccnc2)c1 [Example 1, isopropyl [3-({[4-(1H-pyrazol-1-yl)benzyl](pyridin-3-yl-sulfonyl)amino}methyl)phenoxy]acetate] | 1.48 nM | 10 nM | ΔΔEmax (%) [10]: −33% @ 6 h; ΔΔEmax (mmHg) [10]: −7.0 1.2 mmHg @ 6 h; solid form [11]: crystalline form
CC(C)(C)OC(=O)c1ccc(CCCN(CCCOc2cc(Cl)cc(Cl)c2)S(C)(=O)=O)s1 [Example 10] | 8.15 nM | 3.22 nM | –
CC(C)OC(=O)COc1cccc(CN(Cc2ccc(-c3nccs3)cc2)S(=O)(=O)c2cccnc2)c1 [Example 16] | 0.85 nM | 3 nM | –
CC(C)OC(=O)CCc1cccc(CN(Cc2ccc(-c3ncccn3)cc2)S(=O)(=O)c2nccs2)c1 [Example 26] | 6.4 nM | < 10 nM | –
CC(C)OC(=O)CCc1cccc(CN(Cc2ccc(-c3ncccn3)cc2)S(=O)(=O)c2cccnc2)c1 [Example 13] | 3.1 nM | < 10 nM | –
CCOC(=O)COc1cccc(CN(Cc2ccc(-n3cccn3)cc2)S(=O)(=O)c2cccnc2)c1 [Example 9] | 10 nM | 1.48 nM | –
CC(C)OC(=O)CCc1cccc(CN(Cc2ccc(-c3ncccn3)cc2)S(=O)(=O)c2ccc(Cl)cc2)c1 [Example 22] | 3.3 nM | 15.7 nM | –
CC(C)OC(=O)Cc1cccc(CN(Cc2ccc(-c3ncccn3)cc2)S(=O)(=O)c2cccnc2)c1 [Example 17] | 7.8 nM | 3.9 nM | –
CC(C)OC(=O)COc1cccc(CN(Cc2ccc(-c3nccs3)cc2)S(=O)(=O)c2cn(C)cn2)c1 [Example 12] | 12 nM | 26 nM | –
CCCCCC(O)c1ccc(C2CCC(=O)C2CCCCCCC(=O)O)cc1 (centres unmarked) [AH-13205] | – | – | number of nerve bundles in ciliary muscle [12]: doubling in the number of nerve bundles in ciliary muscle
CC(C)(C)OC(=O)COc1cccc(CN(Cc2ccc(-n3cccn3)cc2)S(=O)(=O)c2cccnc2)c1 [Example C12, t-butyl [3-({[4-(1H-pyrazol-1-yl)benzyl](pyridin-3-yl-sulfonyl)amino}methyl)phenoxy]acetate, reference compound] | 1.48 nM | 10 nM | ΔΔEmax (%) [10]: −34% @ 6 h; ΔΔEmax (mmHg) [10]: −8.0 1.7 mmHg @ 6 h; solid form [11]: gummy material
CC(C)OC(=O)CCc1cccc(CN(Cc2ccc(-n3cccn3)cc2)S(=O)(=O)c2nccs2)c1 [Example 25] | 5.9 nM | < 10 nM | –
CC(C)OC(=O)c1ccc(CCCN(CCOc2cc(Cl)cc(Cl)c2)S(C)(=O)=O)s1 [Example 5] | 4.8 nM | 4.42 nM | –
CC(C)OC(=O)CCCCCCN(CCCc1cc(Cl)cc(Cl)c1)S(C)(=O)=O [Example 6] | 7 nM | 6.6 nM | –

From patent US7622475B2, “EP2 agonists” (Pfizer Inc, priority 2006, dated 2009)
